Results from patent US6002008A, “Substituted 3-cyano quinolines” (American Cyanamid Company, priority 1998, dated 1999).
One block for each compound: values may come before it.

Assays:
[1] = biological target: T1, Kinase insert Domain containing Receptor (KDR; the catalytic domain of the VEGF receptor) (Homo sapiens, UniProt P35968); test: Inhibition of Kinase insert Domain containing Receptor (KDR); type: biochemical
T1 construct: KDR; the catalytic domain of the VEGF receptor
Description: In this standard pharmacological test procedure, KDR protein is mixed, in the presence or absence of a inhibitor compound, with a substrate peptide to be phosphorylated (a copolymer of glutamic acid and tyrosine, E:Y::4:1) and other cofacters such as Mg^++ and sodium vanadate (a protein tyrosine phosphatase inhibitor) in an appropriate buffer to maintain pH (7.2). ATP and a radioactive tracer (either P^32 - or P^33 -labeled ATP) is then add to initiate phosphorylation. After incubation, the radioactive phosphate associated with the acid-insoluble fraction of the assay mixture is then qualified as reflection of substrate phosphorylation.

[2] = tested on: HL60; test: Inhibition of cancer cell growth as measured by cell number; type: cell-based, human; conditions: HL60, 48 hours
Excerpt: (§1) The cell lines were chosen since they overexpressed epidermal growth factor receptor (EGFR) (i.e. A431) or HER2/neu (SKBR3), or had little to no expression of the these receptors (SW620, LOX, MCF7).

[3] = biological target: T2, Epidermal Growth Factor Receptor Kinase (His-tagged cytoplasmic domain of EGFR) (Homo sapiens, UniProt P00533); test: Inhibition of Epidermal Growth Factor Receptor Kinase (EGF-R) using recombinant enzyme; type: biochemical; conditions: average of number of tests, RR-SRC peptide
T2 construct: EGFR cDNA encoding amino acids 645-1186 preceded by Met-Ala-(His)6; made in house; host or cells: Sf9 insect cells, baculovirus vHcEGFR52
Description: Representative compounds of the invention were evaluated for their ability to inhibit the phosphorylation of the tyrosine residue of a peptide substrate catalyzed by the enzyme epidermal growth factor receptor kinase. […] The enzyme used in this assay is the His-tagged cytoplasmic domain of EGFR. A recombinant baculovirus (vHcEGFR52) was constructed containing the EGFR cDNA encoding amino acids 645-1186 preceded by Met-Ala-(His)6. Sf9 cells in 100 mm plates were infected at an moi of 10 pfu/cell and cells were harvested 48 h post infection. A cytoplasmic extract was prepared using 1% Triton X-100 and applied to Ni-NTA column. After washing the column with 20 mM imidazole, HcEGFR was eluted with 250 mM imidazole (in 50 mM NaHPO4, pH 8.0, 300 mM NaCl). […]
Compounds to be evaluated were made into 10 mg/mL stock solutions in 100% dimethylsulfoxide (DMSO). […]
For the enzyme reaction, 10 μL of each inhibitor (at various concentrations) were added to each well of a 96-well plate. […] The filter discs were washed 2× with 0.5% phosphoric acid and radioactivity was measured using a liquid scintillation counter.
The % inhibition of the test compound was determined for at least three different concentrations and the IC50 value was evaluated from the dose response curve. […]

[4] = biological target: recombinant human MEK 1 (MAPKK) and recombinant human ERK2 (MAPK); test: Mitogen Activated Protein Kinase (MAPK) Assay, coupled MEK/ERK; type: biochemical; conditions: separate entries = evaluated more than once
Description: To evaluate inhibitors of the MAP (mitogen activated protein) kinase a two component coupled standard pharmacological test procedure, which measures phosphorylation of a serine/threonine residue in an appropriate sequence in the substrate in the presence and absence of a putative inhibitor, was used. Recombinant human MEK 1 (MAPKK) was first used to activate recombinant human ERK2 (MAPK) and the activated MAPK (ERK) was incubated with substrate (MBP peptide or MYC peptide) in the presence of ATP, Mg^+2 and radiolabeled ^33 P ATP. The phosphorylated peptide was captured on a P 81 phosphocellulose filter (paper filter or embedded in microtiter plate) washed and counted by scintillation methods.
The peptide substrates used in the assay are MBP, peptide substrate ([sequence]), or synthetic Myc substrate, ([sequence].cndot.5 TFA. The recombinant enzymes used were prepared as GST fusion proteins of human ERK 2 and human MEK 1. Inhibitor samples were prepared as 10× stocks in 10% DMSO and an appropriate aliquot was used to deliver either 10 ug/ml for a single point screening dose or 100, 10, 1, and 0.1 uM final concentration for a dose response curve. Final DMSO concentrations were less than or equal to 1%.
The reaction was run as follows in 50 mM Tris kinase buffer, pH 7.4 in a reaction volume of 50 ul. The appropriate volume of kinase buffer and inhibitor sample was added to the tube. Appropriate dilution of enzyme was delivered to give 2-5 ug recombinant MAPK (Erk) per tube. The inhibitor was incubated with MAPK (Erk) for min at 0 deg. […] Recombinant Mek (MAPKK) (0.5-2.5 ug) or fully activated Mek (0.05-0.1 units) was added to activate the Erk and incubated for 30 min at 30° C. […] Samples were incubated at 30° C. for 30 minutes and the reaction was stopped by adding 25 μl of ice cold 10% TCA After samples were chilled on ice for 30 min, 20 μl of sample was transferred onto P 81 phosphocellulose filter paper or appropriate MTP with embedded P 81 filter. Filter papers or MTP were washed 2 times with a large volume of 1% acetic acid, then 2 times with water. The filters or MTP were briefly air dried before addition of scintillant and samples were counted in the appropriate scintillation counter set up for reading ^33 P isotope.
The raw data was captured as cpm. Sample replicates were averaged and corrected for background count. Mean cpm data was tabulated by group and % inhibition by a test compound was calculated as (corrected cpm control-corrected. cpm sample/control)×100=% inhibition.

[5] = tested on: PC3; test: Inhibition of cancer cell growth as measured by cell number; type: cell-based, human; conditions: PC3, 48 hours
Excerpt: as §1

[6] = tested on: human epidermoid tumors (A431); test: In vivo inhibition of the growth of human epidermoid tumors (A431) in mice; design: species or system human tumor in BALB/c nu/nu female mice; conditions: for tumor growth was inhibited by: 100 mg/kg i.p. days 1-10
Description: Representative compounds of this invention (listed below) were evaluated in an in vivo standard pharmacological test procedure which measured its ability to inhibit the growth of human epidermoid tumors. […] BALB/c nu/nu female mice (Charles River, Wilmington, Mass.) were used in this in vivo standard pharmacological test procedure. […] When tumors attained a mass of between 100 and 150 mg, the mice were randomized into treatment groups (day zero). Mice were treated IP once a day either on days 1, 5, and 9 or on days 1 through 10 post staging with doses of either 80, 40 or 20 mg/kg/dose of the compound to be evaluated in 0.2% Klucel. Control animals received no drug. Tumor mass was determined every 7 days [(length X width^2)/2] for 28 days post staging. Relative tumor growth (Mean tumor mass on days 7, 14, 21, and 28 divided by the mean tumor mass on day zero) is determined for each treatment group.

[7] = biological target: gastric (H^+ /K^+)-ATPase (Sus scrofa, UniProt P19156); conditions: Ife R. J., et al., J. Med. Chem., 35(18), 3413 (1992); cited from earlier work
[8] = tested on: SKBR3; test: Inhibition of cancer cell growth as measured by cell number; type: cell-based, human; conditions: SKBR3, 48 hours, Table 8
Excerpt: as §1

[9] = Table 11, 80 IP days 1, 5, 9, day 7
[10] = Table 11, 80 IP days 1, 5, 9, day 14
[11] = Table 11, 80 IP days 1, 5, 9, day 21
[12] = Table 11, 80 IP days 1, 5, 9, day 28
[13] = Table 11, 80 PO days 1-10, day 7
[14] = Table 11, 80 PO days 1-10, day 14
[15] = Table 11, 80 PO days 1-10, day 21
[16] = Table 11, 80 PO days 1-10, day 28
[17] = Table 10, 80 IP days 1, 5, 9, day 7
[18] = Table 10, 80 IP days 1, 5, 9, day 14
[19] = Table 10, 80 IP days 1, 5, 9, day 21
[20] = Table 10, 80 IP days 1, 5, 9, day 28
[21] = Table 10, 80 PO days 1-10, day 7
[22] = Table 10, 80 PO days 1-10, day 14
[23] = Table 10, 80 PO days 1-10, day 21
[24] = Table 10, 80 PO days 1-10, day 28

T1 sequence (P35968 834-1162 limits assumed): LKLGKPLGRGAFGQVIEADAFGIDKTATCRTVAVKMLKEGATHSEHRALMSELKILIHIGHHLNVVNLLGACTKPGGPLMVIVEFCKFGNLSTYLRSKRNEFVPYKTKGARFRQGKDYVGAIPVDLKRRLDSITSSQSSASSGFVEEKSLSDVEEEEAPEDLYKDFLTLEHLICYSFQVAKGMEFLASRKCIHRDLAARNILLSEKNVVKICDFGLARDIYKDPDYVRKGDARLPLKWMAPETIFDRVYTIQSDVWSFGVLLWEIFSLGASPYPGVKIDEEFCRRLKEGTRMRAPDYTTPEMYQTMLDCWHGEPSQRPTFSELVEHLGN
T2 sequence (P00533 669-1210): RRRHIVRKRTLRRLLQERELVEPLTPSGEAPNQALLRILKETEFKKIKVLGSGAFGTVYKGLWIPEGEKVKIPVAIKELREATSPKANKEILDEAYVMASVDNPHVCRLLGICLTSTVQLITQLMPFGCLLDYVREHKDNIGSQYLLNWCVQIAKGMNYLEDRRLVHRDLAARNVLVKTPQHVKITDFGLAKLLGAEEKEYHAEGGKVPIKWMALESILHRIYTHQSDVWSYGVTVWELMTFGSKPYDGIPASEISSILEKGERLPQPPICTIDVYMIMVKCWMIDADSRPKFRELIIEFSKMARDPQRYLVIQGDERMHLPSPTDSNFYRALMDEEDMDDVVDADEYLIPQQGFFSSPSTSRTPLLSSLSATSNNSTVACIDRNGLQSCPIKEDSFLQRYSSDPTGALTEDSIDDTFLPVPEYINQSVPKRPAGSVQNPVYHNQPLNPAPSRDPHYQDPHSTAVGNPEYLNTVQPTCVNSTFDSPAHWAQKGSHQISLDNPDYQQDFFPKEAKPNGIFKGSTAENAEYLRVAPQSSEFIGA
gastric (H^+ /K^+)-ATPase, sequence (P19156 2-1034 limits assumed): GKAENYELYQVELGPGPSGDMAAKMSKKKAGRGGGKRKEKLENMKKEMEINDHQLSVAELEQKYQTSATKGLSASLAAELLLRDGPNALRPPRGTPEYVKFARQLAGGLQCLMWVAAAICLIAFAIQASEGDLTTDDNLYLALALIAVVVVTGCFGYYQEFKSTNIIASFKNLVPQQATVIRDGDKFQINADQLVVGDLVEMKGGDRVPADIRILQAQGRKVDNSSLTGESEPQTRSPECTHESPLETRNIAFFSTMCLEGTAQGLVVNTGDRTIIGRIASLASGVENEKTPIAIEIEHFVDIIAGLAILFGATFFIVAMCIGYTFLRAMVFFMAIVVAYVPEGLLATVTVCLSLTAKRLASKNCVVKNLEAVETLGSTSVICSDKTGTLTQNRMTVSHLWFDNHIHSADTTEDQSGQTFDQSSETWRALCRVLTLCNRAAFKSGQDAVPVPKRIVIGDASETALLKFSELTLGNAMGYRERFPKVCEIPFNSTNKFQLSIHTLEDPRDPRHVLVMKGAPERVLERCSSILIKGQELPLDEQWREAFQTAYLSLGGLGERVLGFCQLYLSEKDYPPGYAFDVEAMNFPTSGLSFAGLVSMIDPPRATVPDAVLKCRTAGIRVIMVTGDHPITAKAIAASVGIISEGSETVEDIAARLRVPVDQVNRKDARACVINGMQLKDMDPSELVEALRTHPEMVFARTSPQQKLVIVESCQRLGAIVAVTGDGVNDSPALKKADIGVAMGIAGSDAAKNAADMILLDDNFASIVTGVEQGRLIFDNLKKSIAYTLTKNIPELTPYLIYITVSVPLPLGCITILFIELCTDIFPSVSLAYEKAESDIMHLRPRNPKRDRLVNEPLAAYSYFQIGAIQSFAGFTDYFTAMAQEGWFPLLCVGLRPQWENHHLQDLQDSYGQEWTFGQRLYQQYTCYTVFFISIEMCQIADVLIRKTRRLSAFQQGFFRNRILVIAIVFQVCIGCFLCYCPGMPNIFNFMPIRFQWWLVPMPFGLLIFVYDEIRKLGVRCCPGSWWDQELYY
gastric (H^+ /K^+)-ATPase, sequence (P18434 whole entry partner): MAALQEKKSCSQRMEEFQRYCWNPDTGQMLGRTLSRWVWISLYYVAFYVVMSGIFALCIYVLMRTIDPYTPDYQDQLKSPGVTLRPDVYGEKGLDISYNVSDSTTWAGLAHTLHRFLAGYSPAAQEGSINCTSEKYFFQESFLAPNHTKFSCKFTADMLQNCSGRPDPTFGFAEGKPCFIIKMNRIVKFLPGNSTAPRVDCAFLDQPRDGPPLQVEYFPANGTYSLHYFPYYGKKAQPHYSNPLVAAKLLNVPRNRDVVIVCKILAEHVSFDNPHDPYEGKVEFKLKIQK

Compound: CCCCOc1cc2ncc(C#N)c(Nc3cccc(Br)c3)c2cc1OCCCC [Example 305, 4(3-Bromophenylamino)-6,7-di-n-butoxy-3-quinolinecarbonitrile]
KDR IC50 [1]: 30 µg/mL

Compound: COc1cc2ncc(C#N)c(Nc3cccc(C#N)c3)c2cc1OC [Example 45, 4-[(3-Cyanophenyl)amino]-6,7-dimethoxy-3-quinolinecarbonitrile]
Inhibition of Cancer Cell Growth as Measured by Cell Number (IC50) [2]: > 1.00 µg/mL

Compound: CN(C)CC=CC(=O)Nc1ccc2ncc(C#N)c(Nc3cccc(Br)c3)c2c1 [Example 99, 4-Dimethylamino-but-2-enoic acid [4-(3-bromo-phenylamino)-3-cyano-quinolin-6-yl]-amide]
IC50 [3]: 0.03 µM

Compound: CCN(CC)CC=CC(=O)Nc1ccc2ncc(C#N)c(Nc3cccc(Br)c3)c2c1 [Example 100, 4-Diethylamino-but-2-enoic acid [4-(3-bromo-phenylamino)-3-cyano-quinolin-6-yl]-amide]
IC50 [3]: 0.1 µM

Compound: CCOc1cc2ncc(C#N)c(Nc3cccc(Br)c3)c2cc1OCC [Example 47, 4-[(3-Bromophenyl)amino]-6,7-diethoxy-3-quinolinecarbonitrile]
Inhibition of Cancer Cell Growth as Measured by Cell Number (IC50) [5]: 0.11 µg/mL
% T/C ([6]; 40 mg/kg/dose IP days 1-10, day 7): 69%
% T/C ([6]; 40 mg/kg/dose IP days 1-10, day 14): 74%
% T/C ([6]; 40 mg/kg/dose IP days 1-10, day 21): 116%
% T/C ([6]; 40 mg/kg/dose IP days 1-10, day 28): 136%
% T/C ([6]; 50 mg/kg/dose IP days 1-10, day 7): 44%
% T/C ([6]; 50 mg/kg/dose IP days 1-10, day 14): 55%
% T/C ([6]; 50 mg/kg/dose IP days 1-10, day 21): 87%
% T/C ([6]; 50 mg/kg/dose IP days 1-10, day 28): 102%
tumor growth was inhibited by ([6]; day 7): 66%
tumor growth was inhibited by ([6]; day 14): 63%
tumor growth was inhibited by ([6]; day 21): 49%
tumor growth was inhibited by ([6]; day 28): 57%
% T/C ([6]; 100 mg/kg/dose IP days 1-10, day 7): 34%
% T/C ([6]; 100 mg/kg/dose IP days 1-10, day 14): 37%
% T/C ([6]; 100 mg/kg/dose IP days 1-10, day 21): 51%
% T/C ([6]; 100 mg/kg/dose IP days 1-10, day 28): 43%
Tumor growth inhibition, dose dependence ([6]; i.p. days 1-10): appeared to be dose dependent

Compound: CCOc1cc2[nH]cc(C#N)c(=O)c2cc1OCC [Example 252, 1,4-Dihydroquinoline-6,7-diethoxy-4-oxo-3-carbonitrile]
IC50 [4]: 100 µM

Compound: Cc1ccccc1Nc1c(C#N)cnc2ccccc12
gastric (H+/K+)-ATPase inhibitory activity [7]: inhibitory activity at high concentrations

Compound: CCOc1cc2ncc(C#N)c(Nc3cccc(Br)c3)c2cc1NC(=O)C=CCN(C)C [Example 216, 4-Dimethylamino-but-2-enoic acid [4-(3-bromo-phenylamino)-3-cyano-7-ethoxy-quinolin-6-yl]-amide]
KDR IC50 [1]: 30 µg/mL
% T/C [6, 9]: 14%
% T/C [6, 10]: 12%
% T/C [6, 11]: 17%
% T/C [6, 12]: 19%
% T/C [6, 13]: 6%
% T/C [6, 14]: 6%
% T/C [6, 15]: 12%
% T/C [6, 16]: 21%

Compound: COc1cc2ncc(C#N)c(Nc3ccc(F)c(Br)c3)c2cc1NC(=O)C=CCN(C)C [Example 208, 4-Dimethylamino-but-2-enoic acid [4-(3-bromo-4-fluoro-phenylamino)-3-cyano-7-methoxy-quinolin-6-yl]-amide]
% T/C [6, 9]: 14%
% T/C [6, 10]: 15%
% T/C [6, 11]: 26%
% T/C [6, 12]: 32%
% T/C [6, 13]: 6%
% T/C [6, 14]: 6%
% T/C [6, 15]: 8%
% T/C [6, 16]: 10%

Compound: C=CC(=O)Nc1cc(CN(C)C)c2ncc(C#N)c(Nc3cccc(Br)c3)c2c1 [Example 111, N-{4-[(3-Bromophenyl)amino]-3-cyano-8-dimethylaminomethyl-6-quinolinyl}-2-propenamide]
IC50 [4]: 100 µM

Compound: COc1cc2ncc(C#N)c(Nc3ccc(F)c(Cl)c3)c2cc1NC(=O)C=CCN(C)C [Example 203, 4-Dimethylamino-but-2-enoic acid [4-(3-chloro-4-fluoro-phenylamino)-3-cyano-7-methoxy-quinolin-6-yl]-amide]
Inhibition of Cancer Cell Growth as Measured by Cell Number (IC50) [8]: 0.1 µg/mL
% T/C [6, 17]: 20%
% T/C [6, 18]: 12%
% T/C [6, 19]: 14%
% T/C [6, 20]: 16%
% T/C [6, 21]: 15%
% T/C [6, 22]: 8%
% T/C [6, 23]: 12%
% T/C [6, 24]: 17%

Compound: CCN(CC)CC=CC(=O)Nc1cc2c(Nc3ccc(F)c(Br)c3)c(C#N)cnc2cc1OC [Example 209, 4Diethylamino-but-2-enoic acid [4(3-bromo-4-fluoro-phenylamino)-3-cyano-7-methoxy-quinolin-6-yl]-amide]
KDR IC50 [1]: 30 µg/mL

Compound: C=C(CN1CCOCC1)C(=O)Nc1ccc2ncc(C#N)c(Nc3cccc(Br)c3)c2c1 [Example 171, N-{4-[(3-Bromophenyl)amino]-3-cyano-6-quinolinyl}-2-morpholin-4-ylmethyl-2-propenamide]
IC50 [4]: 100 µM

Compound: C=CC(=O)Nc1ccc2ncc(C#N)c(Nc3cccc(C#N)c3)c2c1 [Example 160, N-{3-Cyano-4-[(3-cyanophenyl)amino]-6-quinolinyl}-2-propenamide]
KDR IC50 [1]: 30 µg/mL

Compound: CCN(CC)CC=CC(=O)Nc1cc2c(Nc3ccc(F)c(Cl)c3)c(C#N)cnc2cc1OC [Example 204, 4-Diethylamino-but-2-enoic acid [4-(3-chloro-4-fluoro-phenylamino)-3-cyano-7-methoxy-quinolin-6-yl]-amide]
% T/C [6, 17]: 45%
% T/C [6, 18]: 42%
% T/C [6, 19]: 55%
% T/C [6, 20]: 49%
% T/C [6, 21]: 25%
% T/C [6, 22]: 18%
% T/C [6, 23]: 43%
% T/C [6, 24]: 51%

Compound: COc1cc2ncc(C#N)c(Nc3ccc(F)c(Cl)c3)c2cc1NC(=O)C=CCN1CCOCC1 [Example 205, 4-Morpholin-4-yl-but-2-enoic acid [4-(3-chloro-4-fluoro-phenylamino)-3-cyano-7-methoxy-quinolin-6-yl]-amide]
% T/C [6, 17]: 30%
% T/C [6, 18]: 25%
% T/C [6, 19]: 38%
% T/C [6, 20]: 61%
% T/C [6, 21]: 23%
% T/C [6, 22]: 19%
% T/C [6, 23]: 23%
% T/C [6, 24]: 29%

Now from value to compound, other results behind:

IC50 [4]: 70 µM
Compound: COCCOc1cc2ncc(C#N)c(Nc3cccc(Br)c3)c2cc1OCCOC [Example 311, 4-[(3-Bromophenyl)amino]-6,7-bis(2-methoxyethoxy)-3-quinolinecarbonitrile]

KDR IC50 [1]: 30 µg/mL
Compound: COc1ccc2ncc(C#N)c(Nc3ccc(Cl)cc3F)c2c1 [Example 283, 4-(4-Chloro-2-fluoro-phenylamino)-6-methoxy-quinoline-3-carbonitrile]

KDR IC50 [1]: 30 µg/mL
Compound: N#Cc1cnc2cc(O)ccc2c1Nc1ccc(Cl)cc1F [Example 308, 4-(4-Chloro-2-fluorophenylamino)-7-hydroxy-3-quinolinecarbonitrile]

KDR IC50 [1]: 30 µg/mL
Compound: COc1ccc2c(Nc3ccc(Cl)cc3F)c(C#N)cnc2c1 [Example 307, 4-(4-Chloro-2-fluorophenylamino)-7-methoxy-3-quinolinecarbonitrile]

IC50 [4]: 100 µM
Compound: COc1cc2ncc(C#N)c(Nc3cccc(C(C)=O)c3)c2cc1OC [Example 324, 4(3-acetylphenylamino)-6,7-dimethoxy-3-quinolinecarbonitrile]

KDR IC50 [1]: 30 µg/mL
Compound: CCOc1cc2ncc(C#N)c(Nc3cccc(Br)c3)c2cc1NC(=O)C=CCN(CC)CC [Example 217, 4-Diethylamino-but-2-enoic acid [4-(3-bromo-phenylamino)-3-cyano-7-ethoxy-quinolin-6-yl]-amide]
% T/C [6, 9]: 25%
% T/C [6, 10]: 36%
% T/C [6, 11]: 51%
% T/C [6, 12]: 56%
% T/C [6, 13]: 30%
% T/C [6, 14]: 33%
% T/C [6, 15]: 43%
% T/C [6, 16]: 42%

KDR IC50 [1]: 30 µg/mL
Compound: COc1ccc2ncc(C#N)c(Nc3ccc(C)c(O)c3)c2c1 [Example 284, 4-(3-Hydroxy-4-methyl-phenylamino)-6-methoxy-quinoline-3-carbonitrile]

IC50 [4]: > 100 µM
Compound: 4-(3-Bromophenylamino)-6,7-di-methoxymethyl-3-quinolinecarbonitrile [Example 325]

IC50 [4]: > 100 µM
Compound: COc1ccc(OC)c2c(Nc3ccc(Cl)cc3F)c(C#N)cnc12 [Example 238, 4-(4-Chloro-2-fluoro-phenylamino)-5.8-dimethoxyquinoline-3-carbonitrile]
